Assay results: patent US10377741B2, “Substituted heteroaryl aldehyde compounds and methods for their use in increasing tissue oxygenation” (Global Blood Therapeutics, Inc., priority 2011, dated 2019)

Assays:
purified HBS = molecular target: T1, purified HBS (Homo sapiens, UniProt P68871+P69905, E7V); assay: Polymerization assay (delay time of HbS polymerization); type: biochemical, human (homozygous sickle cell patients); settings: percent delay (% DT) vs HBS alone; 50 μM purified HBS, 1.8 M potassium phosphate pH 7.4
T1 construct: HbS was purified by a modified procedure; from tissue; host or cells: blood of homozygous sickle cell patients (CHORI); for the polymerization assay purified by the CRO VIRUSYS
Protocol: Polymerization assays are carried out in vitro using purified HBS exchanged into 1.8 M potassium phosphate buffer at pH 7.4. Using a slightly modified protocol (Antonini and Brunori, 1971), HbS is purified by the CRO VIRUSYS, from blood obtained from homozygous sickle cell patients through the Hemoglobinopathy Center at Children's Hospital Oakland Research Institute (CHORI) with Institutional Review Board approval. Compounds are prepared in 100% DMSO and a desired amount is added to 50 μM of purified HBS at a final DMSO concentration of 0.3%. Final potassium phosphate concentration is adjusted to 1.8 M using a combination of 2.5 M potassium phosphate stock solution and water at pH 7.4. The reaction mixture is incubated for an hour at 37° C. and then transferred into a 24-well plate for deoxygenation in a glove box containing 99.5% nitrogen and 0.5% oxygen. The 24-well plate is not covered and incubated at 4° C. on a plate cooler inside the glove box for one and a half hours. Fifty μL of the reaction mixture is transferred into a 96-well plate and the absorbance at 700 nm is measured every minute for one hour at 37° C. in a plate reader located inside the glove box. A plot of the absorbance against time is fitted using a Boltzman sigmoidal fit and the delay time (from zero to time at half Vmax) is measured. To compare and rank compounds, delay times are expressed as percent delay (% DT), which is defined as the difference in delay times for HBS/compound and HBS alone multiplied by 100 and divided by the delay time for HBS alone.
Compounds listed below have been tested in the polymerization assay. Activity ranges are defined by the number of dagger (†) symbols indicated. † denotes activity ≥40% but ≤80%; †† denotes activity >80% but ≤120%; ††† denotes activity >120% but ≤140%; †††† denotes activity >160%.

whole blood = assay: Whole blood assay: oxygen equilibrium curves of whole blood; type: cell-based, human (homozygous sickle cell patients); settings: compound at 1000 μM; hematocrit 20%, 1 hour at 37° C.
Protocol: Oxygen Equilibrium Curves (OEC) of whole blood before and after treatment with different concentrations of substituted benzaldehyde compounds were performed as follows using a HEMOX analyzer (TCS Scientific, New Hope, Pa.). Blood samples from homozygous sickle cell patients were obtained though the Hemoglobinopathy Center at Children's Hospital Oakland Research Institute (CHORI) with Institutional Review Board approval. The hematocrit was adjusted to 20% using autologous plasma and the blood samples were incubated for 1 hour at 37° C. in absence or presence of compounds. 100 μl of these samples were added to 5 mL of Hemox buffer (30 mM TES, 130 mM NaCl, 5 mM KCl, pH=7.4) at 37° C. and then transferred to the Hemox sample chamber. The samples were saturated with oxygen by flushing with compressed air for 10 minutes. The samples were then flushed with pure nitrogen and the respective absorbances of oxy- and deoxy-Hb are recorded as a function of the solution pO2. The oxygen equilibrium data were then fitted to the Hill Model to obtain values for p50. The deoxygenation curves for both whole blood alone (control) and whole blood in the presence of the compound were collected with the TCS software.
Table 5 below lists the delta p50% values where + indicates a delta p50% of between 0 and 29, ++ indicates a delta p50% of between 30 and 50, and +++ indicates a delta p50% of 50 or greater. Unless noted otherwise, the compounds in Table 2 were tested at 1000 μM.

HbS/A = molecular target: T2, HbS/A (Homo sapiens, UniProt P68871+P69905, E7V); assay: R/T assay (relaxed-to-tense transition under deoxygenated conditions); type: biochemical, human (homozygous sickle cell patients); settings: 3 μM HbS/A, % R remaining vs no treatment
T2 construct: A mixture of HbS/A was purified from blood; from tissue; host or cells: blood of homozygous sickle cell patients (CHORI)
Method in brief: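 Purified HbS/A (3 μM final) incubated 1 hr at 37° C with compounds (3 μM to 100 μM) in potassium phosphate buffer pH 7.4 with 30 μM DPG, then deoxygenated under N2 with 300–700 nm spectra every 5 min for 2 hours. Delta R is % R state retained versus untreated, by linear regression over all wavelengths.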

[1] = molecular target: T3, purified Hemoglobin S (HbS) (Homo sapiens, UniProt P68871+P69905, E7V); assay: Modulation of hemoglobin oxygen affinity: oxygen equilibrium curves (HEMOX) in purified HbS; type: biochemical, human (homozygous sickle cell patients); settings: compound at 30 μM; 25 μM purified HbS, 45 min at 37° C.
T3 construct: HbS was purified by a modified procedure; from tissue; host or cells: blood of homozygous sickle cell patients (CHORI); for the polymerization assay purified by the CRO VIRUSYS
Method in brief: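 HbS from homozygous sickle cell patient blood, 25 μM in HEMOX buffer pH 7.4, incubated 45 min at 37° C with compound (30 μM unless noted). Air-saturated then deoxygenated with N2; p50 from Hill fit; delta p50% = (control p50 − treated p50)/control p50 × 100.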

SMILES: O=Cc1cc(OC(F)F)ncc1OCc1cccn2ccnc12 [Compound 158, 2-(difluoromethoxy)-5-(imidazo[1,2-a]pyridin-8-ylmethoxy)isonicotinaldehyde]
- % delta Delay (purified HBS): † (activity ≥40% but ≤80%)
- delta p50% Values for Whole Blood Assay (whole blood): + (a delta p50% of between 0 and 29)
- delta R (HbS/A; compound at 9 μM): + (a delta R of between 0 and 30)
- delta p50% [1]: ++ (a delta p50% of between 30 and 50)

SMILES: COc1cc(C=O)c(OCc2cccnc2-c2ccccc2)cn1 [Compound 159, 2-methoxy-5-((2-phenylpyridin-3-yl)methoxy) isonicotinaldehyde]
- % delta Delay (purified HBS): †† (activity >80% but ≤120%)
- delta p50% Values for Whole Blood Assay (whole blood): +++ (a delta p50% of 50 or greater)
- delta R (HbS/A; compound at 30 μM): ++ (a delta R of between 30 and 50)
- delta p50% [1]: +++ (a delta p50% of 50 or greater)

SMILES: COc1cc(C=O)c(OCc2ccncc2-c2ccnn2C(C)C)cn1 [Compound 160, 5-((3-(1-isopropyl-1H-pyrazol-5-yl)pyridin-4-yl)methoxy)-2-methoxyisonicotinaldehyde]
- % delta Delay (purified HBS): †† (activity >80% but ≤120%)
- delta p50% Values for Whole Blood Assay (whole blood): +++ (a delta p50% of 50 or greater)
- delta R (HbS/A; compound at 30 μM): + (a delta R of between 0 and 30)
- delta p50% [1]: +++ (a delta p50% of 50 or greater)

SMILES: COc1cc(C=O)c(OCc2cccnc2-c2ccccc2C)cn1 [Compound 162, 2-methoxy-5-((2-(o-tolyl)pyridin-3-yl)methoxy)isonicotinaldehyde]
- % delta Delay (purified HBS): †† (activity >80% but ≤120%)
- delta p50% Values for Whole Blood Assay (whole blood): +++ (a delta p50% of 50 or greater)
- delta R (HbS/A; compound at 30 μM): +++ (a delta R of 50 or greater)
- delta p50% [1]: +++ (a delta p50% of 50 or greater)

SMILES: COc1cc(C=O)c(OCc2cccnc2-c2cccnc2OC)cn1 [Compound 163, 2-methoxy-5-((2′-methoxy-[2,3′-bipyridin]-3-yl)methoxy)isonicotinaldehyde]
- % delta Delay (purified HBS): †† (activity >80% but ≤120%)
- delta p50% Values for Whole Blood Assay (whole blood): +++ (a delta p50% of 50 or greater)
- delta R (HbS/A; compound at 30 μM): ++ (a delta R of between 30 and 50)
- delta p50% [1]: +++ (a delta p50% of 50 or greater)

SMILES: COC(=O)c1ccc(COc2cccnc2C=O)cc1 [Compound 164]
- % delta Delay (purified HBS): ††† (activity >120% but ≤140%)
- delta p50% Values for Whole Blood Assay (whole blood): ++ (a delta p50% of between 30 and 50)
- delta R (HbS/A; compound at 9 μM): ++ (a delta R of between 30 and 50)
- delta p50% [1]: ++ (a delta p50% of between 30 and 50)

SMILES: Cc1ccc(OCc2ccc(C(=O)O)cc2)c(C=O)n1 [Compound 165, 4-(((2-formyl-6-methylpyridin-3-yl)oxy)methyl)benzoic acid]
- % delta Delay (purified HBS): ††† (activity >120% but ≤140%)
- delta p50% Values for Whole Blood Assay (whole blood): + (a delta p50% of between 0 and 29)
- delta R (HbS/A; compound at 9 μM): + (a delta R of between 0 and 30)
- delta p50% [1]: ++ (a delta p50% of between 30 and 50)

SMILES: O=Cc1ccncc1OCc1cccc(C(=O)O)c1 [Compound 169, 3-(((4-formylpyridin-3-yl)oxy)methyl)benzoic acid]
- % delta Delay (purified HBS): ††† (activity >120% but ≤140%)
- delta p50% Values for Whole Blood Assay (whole blood): ++ (a delta p50% of between 30 and 50)
- delta R (HbS/A; compound at 9 μM): ++ (a delta R of between 30 and 50)
- delta p50% [1]: ++ (a delta p50% of between 30 and 50)

SMILES: CCCn1nccc1-c1ncccc1COc1cnc(OC)cc1C=O [Compound 173, 2-methoxy-5-((2-(1-propyl-1H-pyrazol-5-yl)pyridin-3-yl)methoxy)isonicotinaldehyde]
- % delta Delay (purified HBS): † (activity ≥40% but ≤80%)
- delta p50% Values for Whole Blood Assay (whole blood): +++ (a delta p50% of 50 or greater)
- delta R (HbS/A; compound at 30 μM): +++ (a delta R of 50 or greater)
- delta p50% [1]: +++ (a delta p50% of 50 or greater)

SMILES: COc1cc(C=O)c(OCc2cccnc2-c2ccnn2CC(F)(F)F)cn1 [Compound 174, 2-methoxy-5-((2-(1-(2,2,2-trifluoroethyl)-1-pyrazol-5-yl)pyridin-3-yl)methoxy)isonicotinaldehyde]
- % delta Delay (purified HBS): †† (activity >80% but ≤120%)
- delta p50% Values for Whole Blood Assay (whole blood): +++ (a delta p50% of 50 or greater)
- delta R (HbS/A; compound at 30 μM): ++ (a delta R of between 30 and 50)
- delta p50% [1]: +++ (a delta p50% of 50 or greater)

SMILES: COc1cc(C=O)c(OCc2cccnc2-c2ccnn2CC(F)F)cn1 [Compound 175, 5-((2-(1-(2,2-difluoroethyl)-1H-pyrazol-5-yl)pyridin-3-yl)methoxy)-2-methoxyisonicotinaldehyde]
- % delta Delay (purified HBS): †† (activity >80% but ≤120%)
- delta p50% Values for Whole Blood Assay (whole blood): +++ (a delta p50% of 50 or greater)
- delta R (HbS/A; compound at 30 μM): ++ (a delta R of between 30 and 50)
- delta p50% [1]: +++ (a delta p50% of 50 or greater)

SMILES: CC(C)n1nccc1-c1ncccc1COc1cccnc1C=O [Compound 176, 3-((2-(1-isopropyl-1H-pyrazol-5-yl)pyridin-3-yl)methoxy)picolinaldehyde]
- % delta Delay (purified HBS): † (activity ≥40% but ≤80%)
- delta p50% Values for Whole Blood Assay (whole blood): +++ (a delta p50% of 50 or greater)
- delta R (HbS/A; compound at 9 μM): + (a delta R of between 0 and 30)
- delta p50% [1]: +++ (a delta p50% of 50 or greater)

SMILES: Cc1ccc(OCc2cccnc2-c2ccnn2C(C)C)c(C=O)n1 [Compound 177, 3-((2-(1-isopropyl-1H-pyrazol-5-yl)pyridin-3-yl)methoxy)-6-methylpicolinaldehyde]
- % delta Delay (purified HBS): † (activity ≥40% but ≤80%)
- delta p50% Values for Whole Blood Assay (whole blood): +++ (a delta p50% of 50 or greater)
- delta R (HbS/A; compound at 3 μM): + (a delta R of between 0 and 30)
- delta p50% [1]: +++ (a delta p50% of 50 or greater)

SMILES: CC(C)n1nccc1-c1ncccc1COc1cnc(OC(F)F)cc1C=O [Compound 178, 2-(difluoromethoxy)-5-((2-(1-isopropyl-1H-pyrazol-5-yl)pyridin-3-yl)methoxy)isonicotinaldehyde]
- % delta Delay (purified HBS): † (activity ≥40% but ≤80%)
- delta p50% Values for Whole Blood Assay (whole blood): ++ (a delta p50% of between 30 and 50)
- delta R (HbS/A; compound at 9 μM): + (a delta R of between 0 and 30)
- delta p50% [1]: ++ (a delta p50% of between 30 and 50)

SMILES: COCCOc1cc(C=O)c(OCc2cccnc2-c2ccnn2C(C)C)cn1 [Compound 180, 5-((2-(1-isopropyl-1H-pyrazol-5-yl)pyridin-3-yl)methoxy)-2-(2-methoxyethoxy)isonicotinaldehyde]
- % delta Delay (purified HBS): † (activity ≥40% but ≤80%)
- delta p50% Values for Whole Blood Assay (whole blood): +++ (a delta p50% of 50 or greater)
- delta R (HbS/A; compound at 30 μM): ++ (a delta R of between 30 and 50)
- delta p50% [1]: +++ (a delta p50% of 50 or greater)

SMILES: COc1cc(C=O)c(OCc2nccnc2-c2ccnn2C(C)C)cn1 [Compound 181, 5-((3-(1-isopropyl-1H-pyrazol-5-yl)pyrazin-2-yl)methoxy)-2-methoxyisonicotinaldehyde]
- % delta Delay (purified HBS): ††† (activity >120% but ≤140%)
- delta p50% Values for Whole Blood Assay (whole blood): +++ (a delta p50% of 50 or greater)
- delta R (HbS/A; compound at 9 μM): + (a delta R of between 0 and 30)
- delta p50% [1]: +++ (a delta p50% of 50 or greater)
